The record followed here is ChEMBL document CHEMBL3045317, “Synthesis of novel analogues on the -carbon of houttuyfonate and SAR analysis of antibacterial activity with MOPAC” (Med Chem Res, 2009).

What all share (assay type): functional, organism-based
One experiment concerns Bacillus subtilis. In words: Antimicrobial activity against Bacillus subtilis CCRC 10255 after 24 hr by broth microdilution method. (In general: Broth dilution looks for growth in wells or tubes with falling amounts of substance.)
Another experiment deals with Staphylococcus aureus. In words: Antimicrobial activity against Staphylococcus aureus ATCC 25923 after 24 hr by broth microdilution method.
The test system of the next experiment is Proteus mirabilis. The experiment is described as follows: Antimicrobial activity against Proteus mirabilis ATCC 49027 after 24 hr by broth microdilution method.
The test system of the next experiment is Salmonella typhi. In words: Antimicrobial activity against Salmonella enterica subsp. enterica serovar Typhi ATCC 19430 after 24 hr by broth microdilution method.
A further experiment relates to Shigella dysenteriae. In words: Antimicrobial activity against Shigella dysenteriae NI-51570 after 24 hr by broth microdilution method.
The next experiment has as its system Pseudomonas aeruginosa. The experiment is described as follows: Antimicrobial activity against Pseudomonas aeruginosa ATCC 27853 after 24 hr by broth microdilution method.
The subject of the next experiment is Escherichia coli. The experiment is described as follows: Antimicrobial activity against Escherichia coli ATCC 25922 after 24 hr by broth microdilution method.

Structures are written as SMILES. Calls of active or inactive are those of the source. No cut-off for these calls is given here.

For `CCCCCCCCCC(=O)CC=O`, the outcome in the experiment with Bacillus subtilis and with Staphylococcus aureus was Active.
On to `CCCCCCCC(=O)C(C=O)CC` (stereo not drawn), for which the result with Proteus mirabilis, with Salmonella typhi, in the experiment with Shigella dysenteriae, in the experiment with Pseudomonas aeruginosa and with Escherichia coli was inactive. In addition, the result in the experiment with Bacillus subtilis and with Staphylococcus aureus was Active.
`CCCCCCCC(=O)CC=O`: the result in the experiment on Bacillus subtilis and with Staphylococcus aureus was Active.
For the compound `CCCCCCCCCCCC(=O)CC=O`, the result in the experiment on Bacillus subtilis and with Staphylococcus aureus was Active.
